By Kd is commonly meant the free concentration of one partner at which half of the binding sites on the other are occupied at equilibrium, for simple one-to-one binding. High values mean a looser complex, low ones a tighter complex. Broadly, the IC50 is the midpoint of a concentration-inhibition curve. Low values mean greater potency in that assay, high ones weaker potency in that assay.

Counter-ions that a name gives are not always drawn.

The source of these data is US20120129842A1, “BISTHIAZOLE INHIBITORS OF PRO-MATRIX METALLOPROTEINASE ACTIVATION” (priority 2010, published 2012).

Assay [1] deals with proMMP13(1-268) (SEQ ID NO:7) (Homo sapiens, UniProt P45452). The experiment in a line: ThermoFluor binding assay with proMMP13(1-268). The arrangement: 6xHis (C); made in house. Particulars: pH 7.0. The method in brief: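 Thermal shift binding with 3.5 μM protein and 25 μM 1,8-ANS in 50 mM HEPES pH 7.0, 100 mM NaCl, 0.001% Tween-20, 2.5 mM MgCl2, 300 μM CaCl2. Samples were heated 40 to 90 °C at 1 °C/min, fluorescence read at 500 nm. Tm shifts across an 11-point DMSO dilution series were fitted with DSC-derived thermodynamic parameters.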
A general note: In DSF a fluorescence change marks the thermal transition of the protein.

Assay [2] deals with T1, full-length proMMP9(1-707) (SEQ ID NO:1) (Homo sapiens, UniProt P14780, R574P).
T1 construct: made in house; host or cells: HEK293 (proMMP9, secreted); E. coli (MMP3)
The experiment in a line: proMMP9/MMP3 P126 Activation Assay. Format: biochemical. Particulars: 20 nM proMMP9, 20 nM MMP3, 80 min 37° C. The procedure:
The reaction volume was 50 μL. […] Reactivity of residual MMP3 towards P-126 substrate was minimal under these conditions.

For assay [3], the target named is T2, proMMP9(20-445;ΔFnII) (SEQ ID NO:6) (Homo sapiens, UniProt P14780, DEL216-390).
T2 construct: start methionine (N); made in house; host or cells: E. coli BL21(DE3) RIL
T2 sequence (P14780 with tags, fused parts or gaps DEL216-390): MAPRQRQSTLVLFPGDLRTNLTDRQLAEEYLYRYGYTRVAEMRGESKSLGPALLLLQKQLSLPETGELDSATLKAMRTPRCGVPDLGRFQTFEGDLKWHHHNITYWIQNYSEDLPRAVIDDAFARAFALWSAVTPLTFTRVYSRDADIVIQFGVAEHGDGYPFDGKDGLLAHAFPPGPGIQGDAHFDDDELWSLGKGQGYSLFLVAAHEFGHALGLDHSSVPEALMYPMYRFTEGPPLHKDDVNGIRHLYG
The experiment in a line: ThermoFluor binding assay with proMMP9(20-445;ΔFnII). As to conditions: pH 7.0. Put shortly: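 proMMP9(20-445;ΔFnII) at 2.8 μM with 50 μM 1,8-ANS in 50 mM HEPES pH 7.0, 100 mM NaCl, 0.001% Tween-20, 2.5 mM MgCl2, 300 μM CaCl2; compounds serially diluted in DMSO. Heated 40–90 °C at 1 °C/min, fluorescence read at 500±25 nm. Tm fit by standard equations; binding fit using DSC/TF-derived thermodynamic parameters.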

In assay [4] the target is T3, proMMP9(67-444;ΔFnII) (SEQ ID NO:5) (Homo sapiens, UniProt P14780, DEL216-390).
T3 construct: start methionine (N); made in house; host or cells: E. coli BL21(DE3) RIL
T3 sequence (P14780 with tags, fused parts or gaps DEL216-390): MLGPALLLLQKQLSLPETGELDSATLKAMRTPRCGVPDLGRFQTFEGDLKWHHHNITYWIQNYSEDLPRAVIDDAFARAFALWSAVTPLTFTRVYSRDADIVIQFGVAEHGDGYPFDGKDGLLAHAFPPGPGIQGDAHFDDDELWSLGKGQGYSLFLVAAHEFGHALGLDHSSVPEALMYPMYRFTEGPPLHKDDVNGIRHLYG
As to the kind of experiment: ThermoFluor binding assay with proMMP9(67-444;ΔFnII). As to conditions: pH 7.0. The method in brief: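 Thermal shift binding with 3.5 μM proMMP9(67-444;ΔFnII) and 50 μM 1,8-ANS in 50 mM HEPES pH 7.0, 100 mM NaCl, 2.5 mM MgCl2, 300 μM CaCl2, 0.001% Tween-20, with serially diluted compound. Heated 40 to 90° C at 1° C/min; fluorescence-derived Tm fitted using DSC/ThermoFluor thermodynamic parameters.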

T1 sequence (P14780 20-707 R574P): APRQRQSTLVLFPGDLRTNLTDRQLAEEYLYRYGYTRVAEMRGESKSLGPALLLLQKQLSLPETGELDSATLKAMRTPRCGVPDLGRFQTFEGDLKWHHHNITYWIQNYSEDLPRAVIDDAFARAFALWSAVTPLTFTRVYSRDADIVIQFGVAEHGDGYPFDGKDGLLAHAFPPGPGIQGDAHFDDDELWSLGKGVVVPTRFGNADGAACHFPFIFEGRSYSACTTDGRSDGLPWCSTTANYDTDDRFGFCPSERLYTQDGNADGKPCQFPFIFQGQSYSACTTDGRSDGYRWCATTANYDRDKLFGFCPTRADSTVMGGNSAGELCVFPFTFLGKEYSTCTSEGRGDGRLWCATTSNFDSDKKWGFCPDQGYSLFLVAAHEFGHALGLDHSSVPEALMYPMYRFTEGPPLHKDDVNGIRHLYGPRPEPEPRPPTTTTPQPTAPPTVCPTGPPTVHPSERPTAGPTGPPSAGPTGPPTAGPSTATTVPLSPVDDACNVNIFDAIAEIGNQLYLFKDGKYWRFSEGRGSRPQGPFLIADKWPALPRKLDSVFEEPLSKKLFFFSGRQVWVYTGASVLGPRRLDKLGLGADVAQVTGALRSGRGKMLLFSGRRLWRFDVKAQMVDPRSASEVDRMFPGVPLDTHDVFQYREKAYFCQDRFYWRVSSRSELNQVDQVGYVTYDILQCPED

As for `CCS(=O)(=O)c1ccc(OC)c(Nc2nc(-c3sc(C)nc3C)cs2)c1` [Example 50, (2′,4′-Dimethyl-[4,5′]bithiazolyl-2-yl)-(5-ethanesulfonyl-2-methoxy-phenyl)-amine.TFA], the Kd in assay [1] came to 2600 nM; in assay [3], 1300 nM; in assay [4] it was 2600 nM. Further, in assay [2], the IC50 stood at 4100 nM.
Consider `CCS(=O)(=O)c1ccc(OC)c(Nc2nc(-c3sc(N)nc3C)cs2)c1` [Example 51, N^2-(5-Ethanesulfonyl-2-methoxy-phenyl)-4′-methyl-[4,5′]bithiazolyl-2,2′-diamine.TFA], for which the figures for the Kd in assay [1], in assay [3] and in assay [4] were 1900 nM, 1100 nM and 3000 nM, respectively. This compound had an IC50 in assay [2] of 4100 nM.
The like results for `COc1ccc(S(N)(=O)=O)cc1Nc1nc(-c2sc(C)nc2C)cs1` [Example 54, 3-(2′,4′-Dimethyl-[4,5′]bithiazolyl-2-ylamino)-4-methoxy-benzenesulfonamide.TFA] were, in that order, 2000 nM, 1000 nM, 1600 nM and 3400 nM.
The matching figures for `COc1ccc(C(=O)O)cc1Nc1nc(-c2sc(N)nc2C)cs1` [Example 55, 3-(2′-Amino-4′-methyl-[4,5′]bithiazolyl-2-ylamino)-4-methoxy-benzoic acid.HBr]: 9800 nM, 2500 nM, 1700 nM and 740 nM.
In the case of `COc1ccc(C(=O)O)cc1Nc1nc(-c2sc(NC(C)=O)nc2C)cs1` [Example 57, 3-(2′-Acetylamino-4′-methyl-[4,5′]bithiazolyl-2-ylamino)-4-methoxy-benzoic acid.HBr], the Kd is more than 95000 nM in assay [1], 11000 nM in assay [3] and 1700 nM in assay [4]. Also, in assay [2], the IC50 is 1900 nM.
The like results for `COc1ccc(C(=O)NCc2ccccc2)cc1Nc1nc(-c2sc(NC(C)=O)nc2C)cs1` [Example 59, 3-(2′-Acetylamino-4′-methyl-[4,5′]bithiazolyl-2-ylamino)-N-benzyl-4-methoxy-benzamide.TFA] were, in that order, 20000 nM, 2000 nM, 2700 nM and 7500 nM.
The matching figures for `Cc1nc(N)sc1-c1csc(Nc2cc(S(N)(=O)=O)ccc2OC(C)C)n1` [Example 60, 3-(2′-Amino-4′-methyl-[4,5′]bithiazolyl-2-ylamino)-4-isopropoxy-benzenesulfonamide.TFA]: 70 nM, 58 nM, 110 nM and 350 nM.
As to `Cc1nc(N2CCN(C)CC2)sc1-c1csc(Nc2cc(S(N)(=O)=O)ccc2OC(C)C)n1` [Example 61, 4-Isopropoxy-3-[4′-methyl-2′-(4-methyl-piperazin-1-yl)-[4,5′]bithiazolyl-2-ylamino]-benzenesulfonamide.TFA], the Kd in assay [1] was 110 nM; in assay [3], 69 nM; in assay [4] it was 140 nM. Also, 380 nM corresponded to half-maximal inhibition in assay [2] (IC50).
Turning to `Cc1nc(C)c(-c2nc(Nc3cc(S(N)(=O)=O)ccc3OC(C)C)sc2F)s1` [Example 62, 3-(5-Fluoro-2′,4′-dimethyl-[4,5′]bithiazolyl-2-ylamino)-4-isopropoxy-benzenesulfonamide.TFA], the values for the Kd in assay [1], in assay [3] and in assay [4] were 160 nM, 300 nM and 670 nM, respectively. This compound also registered an IC50 in assay [2] of 1500 nM.
The matching figures for `CC(=O)Nc1nc(C)c(-c2csc(Nc3cc(S(N)(=O)=O)ccc3OC(C)C)n2)s1` [Example 63, N-[2-(2-Isopropoxy-5-sulfamoyl-phenylamino)-4′-methyl-[4,5′]bithiazolyl-2′-yl]-acetamide.TFA]: 1300 nM, 520 nM, 790 nM and 750 nM.
The matching figures for `CNC(=O)c1ccc(OC)c(Nc2nc(-c3sc(N)nc3C)cs2)c1` [Example 66, 3-(2′-Amino-4′-methyl-[4,5′]bithiazolyl-2-ylamino)-4-methoxy-N-methyl-benzamide.TFA]: 2600 nM, 2800 nM, 1800 nM and 4900 nM.
Regarding `COc1ccc([N+](=O)[O-])cc1Nc1nc(-c2sc(NC(C)=O)nc2C)cs1` [Example 68, N-[2-(2-Methoxy-5-nitro-phenylamino)-4′-methyl-[4,5′]bithiazolyl-2′-yl]-acetamide.TFA], the Kd was found to be 8400 nM in assay [1], 320 nM in assay [3] and 550 nM in assay [4]. The compound also returned an IC50 in assay [2] of 97 nM.
With `COc1ccc(N)cc1Nc1nc(-c2sc(NC(C)=O)nc2C)cs1` [Example 69, N-[2-(5-Amino-2-methoxy-phenylamino)-4′-methyl-[4,5′]bithiazolyl-2′-yl]-acetamide], the Kd is 25000 nM in assay [1], 4800 nM in assay [3] and 1100 nM in assay [4]. This compound displayed an IC50 in assay [2] of 1400 nM.
For the compound `CCOc1ccc(S(N)(=O)=O)cc1Nc1nc(-c2sc(C)nc2C)cs1` [Example 70, 3-(2′,4′-Dimethyl-[4,5′]bithiazolyl-2-ylamino)-4-ethoxy-benzenesulfonamide.HCl], the Kd in assay [1] came out at 1100 nM; in assay [3], 250 nM; in assay [4], 410 nM. Besides, the IC50 in assay [2] was found to be 460 nM.
Regarding `Cc1nc(N)sc1-c1csc(Nc2cc(C#N)ccc2OC(C)C)n1` [Example 71, 3-(2′-Amino-4′-methyl-[4,5′]bithiazolyl-2-ylamino)-4-isopropoxy-benzonitrile.HBr], the Kd in assay [1] came out at 42 nM; in assay [3], 280 nM; in assay [4], 95 nM. In assay [2], this compound showed an IC50 of 870 nM.
In the case of `COc1ccc(S(C)(=O)=O)cc1Nc1nc(-c2sc(NC(C)=O)nc2C)cs1` [Example 74, N-[2-(5-Methanesulfonyl-2-methoxy-phenylamino)-4′-methyl-[4,5]bithiazolyl-2′-yl]acetamide.HBr], the Kd in assay [1] came to 2400 nM; in assay [3], 1800 nM; in assay [4], 500 nM. The IC50 in assay [2] came to 2500 nM.
Turning to `COc1ccc(S(C)(=O)=O)cc1Nc1nc(-c2sc(N)nc2C)cs1` [Example 75, N^2-(5-Methanesulfonyl-2-methoxy-phenyl)-4′-methyl-[4,5′]bithiazolyl-2,2′-diamine.HBr], the Kd came out at 1500 nM in assay [1], 1100 nM in assay [3] and 600 nM in assay [4]. In assay [2], this compound showed an IC50 of 1600 nM.
As to `Cc1nc(C)c(-c2csc(Nc3cc(C(=O)O)ccc3OC(C)C)n2)s1` [Example 76, 3-(2′,4′-Dimethyl-[4,5′]bithiazolyl-2-ylamino)-4-isopropoxy-benzoic acid], the Kd turned out to be 370 nM in assay [1], 570 nM in assay [3] and 780 nM in assay [4]. Further, in assay [2], the IC50 turned out to be 430 nM.
The matching figures for `CCOc1ccc(-c2ncco2)cc1Nc1nc(-c2sc(N)nc2C)cs1` [Example 79, N^2-(2-Ethoxy-5-oxazol-2-yl-phenyl)-4′-methyl-[4,5′]bithiazolyl-2,2′diamine.HBr]: 240 nM, 1200 nM, 52 nM and 550 nM.
In the case of `CCOc1ccc(-c2ncco2)cc1Nc1nc(-c2sc(C)nc2C)cs1` [Example 80, (2′,4′-Dimethyl-[4,5′]bithiazolyl-2-yl)-(2-ethoxy-5-oxazol-2-yl-phenyl)-amine.TFA], the Kd was determined as 3600 nM in assay [1], 23000 nM in assay [3] and 1800 nM in assay [4]. Half-maximal inhibition in assay [2] (IC50) required 650 nM.
The matching figures for `CCOC(=O)c1ccc(OCC)c(Nc2nc(-c3sc(N)nc3C)cs2)c1` [Example 81, 3-(2′-Amino-4′-methyl-[4,5′]bithiazolyl-2-ylamino)-4-ethoxy-benzoic acid ethyl ester.TFA]: 370 nM, 520 nM, 620 nM and 640 nM.
